Reference: patent US20250154173A1 (Merck Sharp & Dohme LLC, priority 2023, published 2025)

biological target: T1, GST-RIPK1 (recombinant GST-RIPK1 kinase domain (residues 1-327)) (Homo sapiens, UniProt Q13546); assay: RIPK1-ADP-Glo Enzymatic Assay; format: biochemical; conditions: ten-point titration, top compound concentration of 100000 nM; 25 nM GST-RIPK1, 300 μM ATP, 3 μM dephosphorylated-MBP; 30 min pre-incubation, 150 min reaction
T1 construct: recombinant GST-RIPK1 kinase domain (residues 1-327) enzyme produced from baculovirus-transfected Sf21 cells; host or cells: baculovirus-transfected Sf21 insect cells
T1 sequence (Q13546 1-327): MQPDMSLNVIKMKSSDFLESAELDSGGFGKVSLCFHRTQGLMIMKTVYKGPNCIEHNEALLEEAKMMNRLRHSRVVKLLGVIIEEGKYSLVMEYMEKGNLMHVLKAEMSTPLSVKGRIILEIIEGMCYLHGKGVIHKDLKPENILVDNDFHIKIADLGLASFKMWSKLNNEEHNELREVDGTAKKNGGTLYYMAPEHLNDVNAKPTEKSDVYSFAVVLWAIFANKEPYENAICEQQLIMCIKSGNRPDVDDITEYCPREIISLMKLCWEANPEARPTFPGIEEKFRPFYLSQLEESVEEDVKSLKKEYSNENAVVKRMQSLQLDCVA
Procedure, shortened: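 GST-RIPK1 kinase domain (residues 1-327, Sf21-expressed), 25 nM, preincubated 30 min with compound, then reacted 150 min with 300 μM ATP and 3 μM dephosphorylated MBP in pH 7.3 Hepes buffer, 1% DMSO. ADP measured by ADP-Glo luminescence; EC50 from ten-point titration (top 100000 nM), four-parameter fit.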

| EC50 [nM] | Structure (SMILES) |
| --- | --- |
| 18 | N#Cc1cccc(OC2CC3(C2)O[C@@H]2CC[C@@H](c4cnccn4)N2C3=O)c1 (stereo partly drawn) [Example 19.15, 3-{[(5′S,7a′R)-3′-oxo-5′-(pyrazin-2-yl)tetrahydro-3′H-spiro[cyclobutane-1,2′-pyrrolo[2,1-b][1,3]oxazol]-3-yl]oxy}benzonitrile] |
| 18 | N#Cc1cc(F)cc(OC2CC3(C2)O[C@@H]2CC[C@@H](c4cnccn4)N2C3=O)c1 (stereo partly drawn) [Example 19.16] |
| 21 | O=C1N2[C@@H](CC[C@H]2c2cnccn2)OC12CC(Oc1ccccc1)C2 (stereo partly drawn) [Example 19.17, (5′S,7a′R)-3-phenoxy-5′-(pyrazin-2-yl)tetrahydro-3′H-spiro[cyclobutane-1,2′-pyrrolo[2,1-b][1,3]oxazol]-3′-one] |
| 23 | O=C1N2[C@@H](CC[C@H]2c2cnccn2)OC12CC(Oc1cncc(Cl)c1)C2 (stereo partly drawn) [Example 19.18, (5′S,7a′R)-3-[(5-chloropyridin-3-yl)oxy]-5′-(pyrazin-2-yl)tetrahydro-3′H-spiro[cyclobutane-1,2′-pyrrolo[2,1-b][1,3]oxazol]-3′-one] |
| 27 | O=C1N2[C@@H](CC[C@H]2c2cnccn2)OC12CC(OCc1csc3ncccc13)C2 (stereo partly drawn) [Example 19.19, (5′S,7a′R)-5′-(pyrazin-2-yl)-3-[(thieno[2,3-b]pyridin-3-yl)methoxy]tetrahydro-3′H-spiro[cyclobutane-1,2′-pyrrolo[2,1-b][1,3]oxazol]-3′-one] |
| 13 | Cn1nccc1-c1cc(OC2CC3(C2)O[C@@H]2CC[C@@H](c4cnccn4)N2C3=O)ncn1 (stereo partly drawn) [Example 19.20, (5′S,7a′R)-3-{[6-(1-methyl-1H-pyrazol-5-yl)pyrimidin-4-yl]oxy}-5′-(pyrazin-2-yl)tetrahydro-3′H-spiro[cyclobutane-1,2′-pyrrolo[2,1-b][1,3]oxazol]-3′-one] |
| 27 | O=C1N2[C@@H](CC[C@H]2c2cnccn2)OC12CC(Oc1cccnc1)C2 (stereo partly drawn) [Example 19.21, (5′S,7a′R)-5′-(pyrazin-2-yl)-3-[(pyridin-3-yl)oxy]tetrahydro-3′H-spiro[cyclobutane-1,2′-pyrrolo[2,1-b][1,3]oxazol]-3′-one] |
| 12 | O=C1N2[C@@H](CC[C@H]2c2cnccn2)OC12CC(Oc1ccc(F)c(F)c1)C2 (stereo partly drawn) [Example 19.22, (5′S,7a′R)-3-(3,4-difluorophenoxy)-5′-(pyrazin-2-yl)tetrahydro-3′H-spiro[cyclobutane-1,2′-pyrrolo[2,1-b][1,3]oxazol]-3′-one] |
| 664 | Cc1cccnc1CO[C@H]1C[C@]2(C1)O[C@@H]1CC[C@@H](c3cnccn3)N1C2=O [Example 20.1, (5′S,7a′R)-3-((3-methylpyridin-2-yl)methoxy)-5′-(pyrazin-2-yl)tetrahydro-3′H-spiro[cyclobutane-1,2′-pyrrolo[2,1-b]oxazol]-3′-one] |
| 196 | O=C1N2[C@@H](CC[C@H]2c2cnccn2)OC12CC(OCc1ccccn1)C2 (stereo partly drawn) [Example 20.2, (5′S,7a′R)-5′-(pyrazin-2-yl)-3-[(pyridin-2-yl)methoxy]tetrahydro-3′H-spiro[cyclobutane-1,2′-pyrrolo[2,1-b][1,3]oxazol]-3′-one] |
| 126 | Cn1cc2cc(COC3CC4(C3)O[C@@H]3CC[C@@H](c5cnccn5)N3C4=O)ccc2n1 (stereo partly drawn) [Example 20.3, (5′S,7a′R)-3-[(2-methyl-2H-indazol-5-yl)methoxy]-5′-(pyrazin-2-yl)tetrahydro-3′H-spiro[cyclobutane-1,2′-pyrrolo[2,1-b][1,3]oxazol]-3′-one] |
| 179 | O=C1N2[C@@H](CC[C@H]2c2cnccn2)OC12CC(OCc1ccnc3nncn13)C2 (stereo partly drawn) [Example 20.4, (5′S,7a′R)-5′-(pyrazin-2-yl)-3-[([1,2,4]triazolo[4,3-a]pyrimidin-5-yl)methoxy]tetrahydro-3′H-spiro[cyclobutane-1,2′-pyrrolo[2,1-b][1,3]oxazol]-3′-one] |
| 74 | Cc1ncccc1COC1CC2(C1)O[C@@H]1CC[C@@H](c3cnccn3)N1C2=O (stereo partly drawn) [Example 20.5, (5′S,7a′R)-3-[(2-methylpyridin-3-yl)methoxy]-5′-(pyrazin-2-yl)tetrahydro-3′H-spiro[cyclobutane-1,2′-pyrrolo[2,1-b][1,3]oxazol]-3′-one] |
| 86 | O=C1N2[C@@H](CC[C@H]2c2cnccn2)OC12CC(OCc1cccnc1C(F)(F)F)C2 (stereo partly drawn) [Example 20.6, (5′S,7a′R)-5′-(pyrazin-2-yl)-3-{[2-(trifluoromethyl)pyridin-3-yl]methoxy}tetrahydro-3′H-spiro[cyclobutane-1,2′-pyrrolo[2,1-b][1,3]oxazol]-3′-one] |
| 86 | O=C1N2[C@@H](CC[C@H]2c2cnccn2)OC12CC(OCc1ccc3scnc3c1)C2 (stereo partly drawn) [Example 20.7, (5′S,7a′R)-3-[(1,3-benzothiazol-5-yl)methoxy]-5′-(pyrazin-2-yl)tetrahydro-3′H-spiro[cyclobutane-1,2′-pyrrolo[2,1-b][1,3]oxazol]-3′-one] |
| 236 | N#CC1(c2ccc(COC3CC4(C3)O[C@@H]3CC[C@@H](c5cnccn5)N3C4=O)cc2)CC1 (stereo partly drawn) [Example 20.8, 1-[4-({[(5′S,7a′R)-3′-oxo-5′-(pyrazin-2-yl)tetrahydro-3′H-spiro[cyclobutane-1,2′-pyrrolo[2,1-b][1,3]oxazol]-3-yl]oxy}methyl)phenyl]cyclopropane-1-carbonitrile] |
| 83 | Cn1ccc([C@@H]2CC[C@H]3OC4(CC(Oc5cncc(Cl)c5)C4)C(=O)N32)n1 (stereo partly drawn) [Example 20.9, (5′S,7a′R)-3-[(5-chloropyridin-3-yl)oxy]-5′-(1-methyl-1H-pyrazol-3-yl)tetrahydro-3′H-spiro[cyclobutane-1,2′-pyrrolo[2,1-b][1,3]oxazol]-3′-one] |
| 255 | O=C1N2[C@H](O[C@]13C[C@@H](OCc1ccccc1)C3)[C@@H](O)C[C@H]2c1cnccn1 [Example 21.1, (1s,3S,5′S,7′S,7a′R)-3-(benzyloxy)-7′-hydroxy-5′-(pyrazin-2-yl)tetrahydro-3′H-spiro[cyclobutane-1,2′-pyrrolo[2,1-b]oxazol]-3′-one] |
| 106 | O=C1N2[C@H](O[C@]13C[C@@H](OCc1ccccc1)C3)[C@H](O)C[C@H]2c1cnccn1 [Example 21.2, (1s,3S,5′S,7′R,7a′R)-3-(benzyloxy)-7′-hydroxy-5′-(pyrazin-2-yl)tetrahydro-3′H-spiro[cyclobutane-1,2′-pyrrolo[2,1-b]oxazol]-3′-one] |
| 18 | O=C1N2[C@@H](CC[C@H]2c2cnccn2)O[C@]12C[C@@H](OCc1ccccc1Cl)C2 [Example 22.1, (1S,3S,5′S,7a′R)-3-((2-chlorobenzyl)oxy)-5′-(pyrazin-2-yl)tetrahydro-3′H-spiro[cyclobutane-1,2′-pyrrolo[2,1-b]oxazol]-3′-one] |
| 33 | Cc1cc(Cl)cnc1COC1CC2(C1)O[C@@H]1CC[C@@H](c3cnccn3)N1C2=O (stereo partly drawn) [Example 22.3, (5′S,7a′R)-3-((5-chloro-3-methylpyridin-2-yl)methoxy)-5′-(pyrazin-2-yl)tetrahydro-3′H-spiro[cyclobutane-1,2′-pyrrolo[2,1-b]oxazol]-3′-one] |
| 146 | O=C1N2[C@@H](CC[C@H]2c2cnccn2)OC12CC(OCc1cccs1)C2 (stereo partly drawn) [Example 22.4, (5′S,7a′R)-5′-(pyrazin-2-yl)-3-(thiophen-2-ylmethoxy)tetrahydro-3′H-spiro[cyclobutane-1,2′-pyrrolo[2,1-b]oxazol]-3′-one] |
| 15 | O=C1N2[C@@H](CC[C@H]2c2cnccn2)OC12CC(OCc1cccc(Cl)c1)C2 (stereo partly drawn) [Example 22.6, (5′S,7a′R)-3-[(3-chlorophenyl)methoxy]-5′-(pyrazin-2-yl)tetrahydro-3′H-spiro[cyclobutane-1,2′-pyrrolo[2,1-b][1,3]oxazol]-3′-one] |
| 37 | Cc1nnc(-c2ccc(COC3CC4(C3)O[C@@H]3CC[C@@H](c5cnccn5)N3C4=O)cc2)o1 (stereo partly drawn) [Example 22.9, (5′S,7a′R)-3-{[4-(5-methyl-1,3,4-oxadiazol-2-yl)phenyl]methoxy}-5′-(pyrazin-2-yl)tetrahydro-3′H-spiro[cyclobutane-1,2′-pyrrolo[2,1-b][1,3]oxazol]-3′-one] |
